Series [1] addresses P2Y purinoceptor 4 (Homo sapiens) (UniProt P51582). The series can be described thus: Antagonist activity at human P2Y4 receptor expressed in AD293 cells assessed as inhibition of UTP-induced inositol-1-phosphate accumulation at 0.1 to 100 uM. It counts as functional, cell-based.
Series [2] addresses P2Y purinoceptor 6 (Homo sapiens) (UniProt Q15077). The series can be described thus: Antagonist activity at human P2Y6 receptor expressed in AD293 cells assessed as inhibition of UDP-induced inositol-1-phosphate accumulation at 0.1 to 100 uM. In kind it is functional, cell-based.
The target of series [3] is T1, Ectonucleotide pyrophosphatase/phosphodiesterase family member 1 (Homo sapiens) (UniProt P22413).
T1 sequence (whole entry): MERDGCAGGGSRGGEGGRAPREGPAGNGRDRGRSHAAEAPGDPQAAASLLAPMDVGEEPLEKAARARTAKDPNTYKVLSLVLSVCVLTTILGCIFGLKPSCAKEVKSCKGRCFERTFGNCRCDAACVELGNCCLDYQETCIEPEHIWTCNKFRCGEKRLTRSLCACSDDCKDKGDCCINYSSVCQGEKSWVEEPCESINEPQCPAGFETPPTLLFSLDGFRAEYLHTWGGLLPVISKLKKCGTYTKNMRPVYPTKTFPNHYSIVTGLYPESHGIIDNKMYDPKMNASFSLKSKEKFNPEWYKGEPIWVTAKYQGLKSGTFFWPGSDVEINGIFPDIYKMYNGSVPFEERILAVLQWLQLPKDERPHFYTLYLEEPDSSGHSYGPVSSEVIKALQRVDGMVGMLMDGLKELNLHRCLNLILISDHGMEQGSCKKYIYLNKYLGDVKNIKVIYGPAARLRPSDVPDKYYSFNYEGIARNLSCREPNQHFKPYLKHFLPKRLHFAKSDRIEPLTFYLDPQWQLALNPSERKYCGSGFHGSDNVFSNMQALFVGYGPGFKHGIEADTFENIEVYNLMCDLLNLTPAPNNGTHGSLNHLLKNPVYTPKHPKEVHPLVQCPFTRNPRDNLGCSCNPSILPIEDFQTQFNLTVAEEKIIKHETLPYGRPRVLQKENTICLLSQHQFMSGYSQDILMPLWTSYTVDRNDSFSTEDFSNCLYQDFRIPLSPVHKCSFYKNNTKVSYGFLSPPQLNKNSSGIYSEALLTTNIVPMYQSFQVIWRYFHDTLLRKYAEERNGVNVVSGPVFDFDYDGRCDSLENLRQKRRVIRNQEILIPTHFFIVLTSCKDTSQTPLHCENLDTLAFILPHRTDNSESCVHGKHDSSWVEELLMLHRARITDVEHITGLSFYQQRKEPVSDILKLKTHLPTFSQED
The series can be described thus: Inhibition of human NPP1 expressed in COS7 cell membranes at 100 uM using pNP-TMP as substrate preincubated for 3 mins followed by substrate addition and measured after 15 mins relative to control.

The nature of series [4]: Cytotoxicity against human primary chondrocytes at 100 uM after 24 hrs by XTT assay. On the technique in general: Tetrazolium assays rely on reduction of a dye to a coloured formazan, in cell work by metabolically active cells.
Series [5] addresses P2Y purinoceptor 6 (Homo sapiens) (UniProt Q15077). Put plainly: Agonist activity at human P2Y6 receptor expressed in AD293 cells assessed as inositol-1-phosphate accumulation at 100 uM. In kind it is functional, cell-based.
Series [6] has as its target T2, Ectonucleotide pyrophosphatase/phosphodiesterase family member 3 (Homo sapiens) (UniProt O14638).
T2 sequence (whole entry): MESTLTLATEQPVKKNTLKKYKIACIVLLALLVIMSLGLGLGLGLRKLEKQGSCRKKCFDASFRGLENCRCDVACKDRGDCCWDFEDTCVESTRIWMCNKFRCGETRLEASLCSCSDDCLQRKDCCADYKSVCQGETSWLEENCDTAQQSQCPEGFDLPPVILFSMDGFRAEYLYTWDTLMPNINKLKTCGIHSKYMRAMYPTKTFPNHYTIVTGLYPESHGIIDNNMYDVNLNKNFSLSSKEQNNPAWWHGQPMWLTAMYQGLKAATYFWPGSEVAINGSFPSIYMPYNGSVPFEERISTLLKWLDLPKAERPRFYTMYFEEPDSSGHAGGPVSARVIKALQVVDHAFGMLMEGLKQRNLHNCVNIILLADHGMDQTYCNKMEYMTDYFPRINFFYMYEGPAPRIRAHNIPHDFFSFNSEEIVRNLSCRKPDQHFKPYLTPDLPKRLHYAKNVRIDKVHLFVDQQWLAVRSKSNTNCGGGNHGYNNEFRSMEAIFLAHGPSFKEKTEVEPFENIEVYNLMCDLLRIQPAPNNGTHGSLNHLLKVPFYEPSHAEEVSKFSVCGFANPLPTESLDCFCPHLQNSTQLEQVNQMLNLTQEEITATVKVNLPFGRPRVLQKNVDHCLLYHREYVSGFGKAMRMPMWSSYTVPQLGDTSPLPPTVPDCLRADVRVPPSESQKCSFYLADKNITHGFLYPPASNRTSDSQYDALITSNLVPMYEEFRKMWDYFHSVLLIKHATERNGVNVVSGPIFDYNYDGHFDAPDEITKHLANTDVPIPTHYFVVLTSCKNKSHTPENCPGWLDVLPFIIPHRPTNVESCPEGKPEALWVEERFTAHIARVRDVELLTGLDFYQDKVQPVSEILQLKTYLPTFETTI
Put plainly: Inhibition of human NPP3 expressed in COS7 cell membranes at 100 uM using pNP-TMP as substrate preincubated for 3 mins followed by substrate addition and measured after 15 mins relative to control.

The target of series [7] is P2Y purinoceptor 4 (Homo sapiens) (UniProt P51582). Put plainly: Agonist activity at human P2Y4 receptor expressed in AD293 cells assessed as inositol-1-phosphate accumulation at 0.1 to 100 uM. In kind it is functional, cell-based.
Sequence of P2Y purinoceptor 4 (Homo sapiens) (P51582 whole entry): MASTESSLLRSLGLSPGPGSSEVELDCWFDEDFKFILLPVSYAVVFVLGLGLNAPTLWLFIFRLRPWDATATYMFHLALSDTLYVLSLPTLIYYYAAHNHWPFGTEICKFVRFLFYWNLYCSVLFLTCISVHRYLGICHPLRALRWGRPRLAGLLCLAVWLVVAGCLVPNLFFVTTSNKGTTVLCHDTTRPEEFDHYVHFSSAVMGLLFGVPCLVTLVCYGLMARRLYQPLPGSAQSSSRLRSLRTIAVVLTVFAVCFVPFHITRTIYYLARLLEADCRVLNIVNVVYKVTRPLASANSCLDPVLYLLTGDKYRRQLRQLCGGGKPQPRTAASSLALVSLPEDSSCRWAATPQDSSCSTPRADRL
Series [8] has as its target P2Y purinoceptor 2 (Homo sapiens) (UniProt P41231). The series can be described thus: Antagonist activity at human P2Y2 receptor expressed in AD293 cells assessed as inhibition of UTP-induced inositol-1-phosphate accumulation at 100 uM. It counts as functional, cell-based.
The species entered for series [9] is Homo sapiens. The series can be described thus: Inhibition of alkaline phosphatase in human primary chondrocyte at 100 uM using p-nitrophenyl phosphate as substrate after 30 mins by […] relative to control. On the technique in general: In an ELISA, binding on a coated surface is turned into a signal by an enzyme label.
Series [10] has as its target P2Y purinoceptor 2 (Homo sapiens) (UniProt P41231). Put plainly: Agonist activity at human P2Y2 receptor expressed in AD293 cells assessed as inositol-1-phosphate accumulation at 100 uM. It counts as functional, cell-based.
In series [11] the target is T3, Ectonucleotide pyrophosphatase/phosphodiesterase family member 1 (Homo sapiens, UniProt P22413).
T3 sequence (P22413 whole entry): T1 sequence (whole entry)
Put plainly: Inhibition of human NPP1 expressed in COS7 cell membranes using pNP-TMP as substrate preincubated for 3 mins followed by substrate addition and measured after 15 mins by Dixon plot analysis.

In series [12] the target is T3, Ectonucleotide pyrophosphatase/phosphodiesterase family member 1. The series can be described thus: Inhibition of full-length human NPP-1 expressed in baculovirus infected Sf9 cells using p-Nph5-TMP as substrate after 60 mins by colorimetric assay.

Activity calls are given as the source filed them. The calls are words filed in the database; no cut-off is given here. A value given as a limit tells only on which side of the number the result lay.

Sequence of P2Y purinoceptor 2 (Homo sapiens) (P41231 whole entry): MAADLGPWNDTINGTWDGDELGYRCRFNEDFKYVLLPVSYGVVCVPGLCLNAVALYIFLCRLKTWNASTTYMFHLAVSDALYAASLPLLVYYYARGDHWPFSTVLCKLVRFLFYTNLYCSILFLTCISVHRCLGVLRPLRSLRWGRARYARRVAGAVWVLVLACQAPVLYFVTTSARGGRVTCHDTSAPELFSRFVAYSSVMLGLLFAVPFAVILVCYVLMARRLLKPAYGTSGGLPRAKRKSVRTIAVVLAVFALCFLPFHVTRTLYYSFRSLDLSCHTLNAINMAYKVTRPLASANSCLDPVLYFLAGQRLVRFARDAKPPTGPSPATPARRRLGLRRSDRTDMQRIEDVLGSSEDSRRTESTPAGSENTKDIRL
Sequence of P2Y purinoceptor 6 (Homo sapiens) (Q15077 whole entry): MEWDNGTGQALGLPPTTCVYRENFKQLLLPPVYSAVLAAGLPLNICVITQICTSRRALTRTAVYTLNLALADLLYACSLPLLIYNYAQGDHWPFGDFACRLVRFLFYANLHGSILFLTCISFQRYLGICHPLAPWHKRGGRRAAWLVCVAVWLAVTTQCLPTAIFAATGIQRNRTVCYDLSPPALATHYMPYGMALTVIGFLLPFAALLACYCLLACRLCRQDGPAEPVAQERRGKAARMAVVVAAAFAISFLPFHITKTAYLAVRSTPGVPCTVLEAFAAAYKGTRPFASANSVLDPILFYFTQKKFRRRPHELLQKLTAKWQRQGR

Regarding `O=c1ccn(COCCOP(=S)(S)OP(=O)(O)O)c(=O)[nH]1` (stereo not drawn), the inhibition entry in series [1], in series [2] and in [8] was “inactive” each time. Moreover, the values for the inhibition in [3], in series [6] and in series [9] were 96 to 98%, 30% and below 10%, respectively. In addition, the Activity result in [4] is on record as “Non-Toxic”. The outcome in series [5] was Active. Also, the outcome in [7] and in series [10] was inactive. This compound had a Ki in series [11] of 2830 nM.
Turning to `O=c1ccn(COCCOP(=S)(S)OP(=O)(O)OP(=O)(O)O)c(=O)[nH]1` (stereo not drawn), the inhibition entry in [1], in series [2] and in [8] was “inactive” in each case. Besides, the results for the inhibition in [3], in series [6] and in series [9] were 96 to 98%, 31% and below 10%, respectively. Also, in series [4], the Activity entry is recorded as “Non-Toxic”. Further, the outcome in [5] was Active. Further, the outcome in series [7] and in series [10] was inactive. In series [11], this compound came in with a Ki of 1280 nM.
In the case of `Nc1ncnc2c1ncn2COCCOP(=O)(O)CP(=O)(O)O`, the Ki in series [12] is 16300 nM.

In general, inhibition refers to the relative decrease from the control value, in per cent. Usually Ki stands for a measure of affinity in units of concentration, obtained from inhibition or displacement. Low readings indicate higher affinity, high ones lower affinity.

The values above are taken from ChEMBL document CHEMBL4311993, “Structure-activity relationship study of NPP1 inhibitors based on uracil-N1-(methoxy)ethyl-β-phosphate scaffold” (Eur J Med Chem, 2019).
